The target of this test is T1, ERRα ligand binding domain (ERRα-LBD) (Homo sapiens, UniProt P11474).
T1 construct: made in house; host or cells: E. coli
T1 sequence (P11474 193-421 limits assumed): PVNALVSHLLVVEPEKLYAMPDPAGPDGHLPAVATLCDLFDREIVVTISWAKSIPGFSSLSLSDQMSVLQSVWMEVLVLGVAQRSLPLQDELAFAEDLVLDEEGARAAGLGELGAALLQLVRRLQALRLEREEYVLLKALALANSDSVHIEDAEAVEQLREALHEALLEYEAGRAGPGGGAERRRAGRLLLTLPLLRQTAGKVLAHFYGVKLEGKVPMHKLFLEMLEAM
The experiment in a line: ERRα AlphaScreen Assay. It counts as biochemical. Conditions: disruption of binding of ERRα-LBD protein to biotin-PGC1α-3 co-activator peptide; read-out: mean pIC50 (converted). From the text: This assay was based on the knowledge that nuclear receptors interact with cofactors in a ligand dependent matter. The sites of interaction have been mapped to LXXLL motifs that are present in the co-activator sequences. Short peptide sequences that contain the LXXLL motif mimic the behavior of full length co-activators.
The ERRα AlphaScreen Assay described here relies on the interaction of the co-activator peptide with purified bacterial- expressed ERRα ligand binding domain (ERRα-LBD); upon ligand binding, the ERRα protein can undergo a conformational change resulting in a loss of co-activator binding.
Compounds of the present invention were tested for their ability to disrupt binding of ERRα-LBD protein to co-activator peptide using AlphaScreen® Technology (Perkin Elmer). ERRα-LBD protein was expressed in E. coli as a 6×His Small Ubiquitin-like Modifier (SUMO) fusion. Bacterial expressed 6His-SUMO-ERRα-LBD protein was purified using affinity chromatography. All experiments were performed at room temperature in 384-well white non-binding plates (Greiner) using 50 mM Tris-HCl pH 7.5, 100 mM NaCl, 0.1% Pluronic F-127, 0.05% BSA and 5 mM TCEP as the buffer. Final DMSO concentration was 1% in the assay. Compounds were assayed in triplicate and: incubated with 0.81 nM ERRα-LBD protein and 10 μg/mL streptavidin donor beads and 10 μg/mL Ni-chelate acceptor beads for 1 hour at room temperature; followed by a 2-hour incubation with 15 nM biotin-PGC1α-3 peptide (QRRPCSELLKYLTTNDDPP) corresponding to amino acids 202 to 220.
The AlphaScreen signal was measured using an Envision Xcite plate reader (Perkin Elmer). Data was normalized, and curve fitting analysis was performed in GraphPad Prism 7 using a four-parameter dose-response fit.
Background: Bead proximity is the source of the signal in Alpha formats.

In the case of `COc1cc(C2CC(=O)Nc3n[nH]cc32)ccc1Oc1cccc(C2CC2)c1` (stereo not drawn) [Example 31, 4-[4-(3-cyclopropylphenoxy)-3-methoxyphenyl]-2H,4H,5H,6H,7H-pyrazolo[3,4-b]pyridin-6-one], the IC50 is 10 to 100 nM. For `COc1cc(Oc2ccc(C3CC(=O)Nc4n[nH]cc43)cc2)cc(C(F)(F)F)c1` (stereo not drawn) [Example 54, 4-{4-[3-methoxy-5-(trifluoromethyl)phenoxy]phenyl}-2H,4H,5H,6H,7H-pyrazolo[3,4-b]pyridin-6-one] the value was 10 to 100 nM. For `COc1cc(-c2cc(=O)[nH]c3n[nH]cc23)ccc1Oc1ccc(C#N)cc1C(F)(F)F` [Example 71, 4-(2-methoxy-4-{6-oxo-2H,6H,7H-pyrazolo[3,4-b]pyridin-4-yl}phenoxy)-3-(trifluoromethyl)benzonitrile] the value was 100 to 1000 nM; for `COc1cc(C2CC(=O)Nc3n[nH]cc32)ccc1Oc1cc(C(C)(C)C)cc(C(C)(C)C)c1` (stereo not drawn) [Example 44, 4-[4-(3,5-di-tert-butylphenoxy)-3-methoxyphenyl]-2H,4H,5H,6H,7H-pyrazolo[3,4-b]pyridin-6-one], 10 to 100 nM. With `COc1cc(Oc2ccc(C3CC(=O)Nc4n[nH]cc43)cc2F)cc(C(F)(F)F)c1` (stereo not drawn) [Example 57, 4-{3-fluoro-4-[3-methoxy-5-(trifluoromethyl)phenoxy]phenyl}-2H,4H,5H,6H,7H-pyrazolo[3,4-b]pyridin-6-one], the IC50 was 10 to 100 nM.

With `COc1cc(C2CC(=O)Nc3n[nH]cc32)ccc1Oc1ccc2c(c1)CCC2` (stereo not drawn) [Example 49, 4-[4-(2,3-dihydro-1H-inden-5-yloxy)-3-methoxyphenyl]-2H, 4H, 5H, 6H,7H-pyrazolo[3,4-b]pyridin-6-one], the IC50 is 100 to 1000 nM. Take `COc1cc(C2CC(=O)Nc3n[nH]cc32)ccc1Oc1cc(Br)cc(C(F)(F)F)c1` (stereo not drawn) [Example 42, 4-{4-[3-bromo-5-(trifluoromethyl)phenoxy]-3-methoxyphenyl}-2H,4H,5H,6H,7H-pyrazolo[3,4-b]pyridin-6-one]: the IC50 was 10 to 100 nM.

For `COc1cc(C2CC(=O)Nc3n[nH]cc32)ccc1Oc1ccc(C#N)c2ccccc12` (stereo not drawn) [Example 46, 4-(2-methoxy-4-{6-oxo-2H,4H,5H,6H,7H-pyrazolo[3,4-b]pyridin-4-yl}phenoxy)naphthalene-1-carbonitrile], the IC50 was 10 to 100 nM. With `COc1cc(C2CC(=O)Nc3n[nH]cc32)ccc1Oc1cccc(C)c1` (stereo not drawn) [Example 1, 4-[3-methoxy-4-(3-methylphenoxy)phenyl]-2H,4H,5H,6H, 7H-pyrazolo[3,4-b]pyridin-6-one], the IC50 was 100 to 1000 nM.

As for `COc1cc(C2CC(=O)Nc3c[nH]cc32)ccc1Oc1cc(C(F)(F)F)cc(C(F)(F)F)c1` (stereo not drawn) [Example 76, 4-{4-[3,5-bis(trifluoromethyl)phenoxy]-3-methoxyphenyl},2H,3H,4H,6H-pyrrolo[3,4-b]pyridin-2-one], the IC50 is 10 to 100 nM.

`COc1cc(C2CC(=O)Nc3n[nH]cc32)ccc1Oc1ccccc1Cc1ccccc1` (stereo not drawn) [Example 26, 4-[4-(2-benzylphenoxy)-3-methoxyphenyl]-2H,4H,5H,6H,7H-pyrazolo[3,4-b]pyridin-6-one]: the IC50 was 100 to 1000 nM. `COc1cc(C2CC(=O)Nc3n[nH]cc32)ccc1Oc1ccccc1Br` (stereo not drawn) [Example 7, 4-[4-(2-bromophenoxy)-3-methoxyphenyl]-2H,4H,5H,6H,7H-pyrazolo[3,4-b]pyridin-6-one]: the IC50 is 100 to 1000 nM. As to `CCCc1ccccc1Oc1ccc(C2CC(=O)Nc3n[nH]cc32)cc1OC` (stereo not drawn) [Example 22, 4-[3-methoxy-4-(2-propylphenoxy)phenyl]-2H,4H,5H,6H,7H-pyrazolo[3,4-b]pyridin-6-one], the IC50 is 100 to 1000 nM. For `COc1cc(C2CC(=O)Nc3n[nH]cc32)ccc1Oc1ccc(C#N)cc1C(F)(F)F` (stereo not drawn) [Example 2, 4-(2-methoxy-4-{6-oxo-2H,4H,5H,6H,7H-pyrazolo[3,4-b]pyridin-4-yl}phenoxy)-3-(trifluoromethyl)benzonitrile] the value was 100 to 1000 nM; for `COc1cc(C2CC(=O)Nc3n[nH]cc32)ccc1Oc1cc(C(F)(F)F)cc(C(F)(F)F)c1` (single isomer, unassigned; (+)) [Example 79, (+)-4-{4-[3,5-bis(trifluoromethyl)phenoxy]-3-methoxyphenyl}-2H,4H,5H,6H,7H-pyrazolo[3,4-b]pyridin-6-one], 100 to 1000 nM. For `COc1cc(C2CC(=O)Nc3n[nH]cc32)ccc1Oc1cccc2c1CCC2` (stereo not drawn) [Example 47, 4-[4-(2,3-dihydro-1H-inden-4-yloxy)-3-methoxyphenyl]-2H,4H,5H,6H,7H-pyrazolo[3,4-b]pyridin-6-one] the value was 10 to 100 nM. In the case of `COc1cc(C2CC(=O)Nc3n[nH]cc32)ccc1Oc1ccccc1C12CC(C1)C2` (stereo not drawn) [Example 45, 4-[4-(2-{bicyclo[1.1.1]pentan-1-yl}phenoxy)-3-methoxyphenyl]-2H,4H,5H,6H,7H-pyrazolo[3,4-b]pyridin-6-one], the IC50 is 10 to 100 nM. Take `CCc1cccc(Oc2ccc(C3CC(=O)Nc4n[nH]cc43)cc2OC)c1` (stereo not drawn) [Example 21, 4-[4-(3-ethylphenoxy)-3-methoxyphenyl]-2H,4H,5H,6H,7H-pyrazolo[3,4-b]pyridin-6-one]: the IC50 is 100 to 1000 nM.

On to `Cc1cc(C2CC(=O)Nc3n[nH]cc32)ccc1Oc1ccc(C#N)cc1C(C)(C)C` (stereo not drawn) [Example 55, 3-tert-butyl-4-(2-methyl-4-{6-oxo-2H,4H,5H,6H,7H-pyrazolo[3,4-b]pyridin-4-yl}phenoxy)benzonitrile], for which the IC50 is 10 to 100 nM. Under `COc1cc(Oc2ccc(C3CC(=O)Nc4n[nH]cc43)cc2C)cc(C(F)(F)F)c1` (stereo not drawn) [Example 56, 4-{4-[3-methoxy-5-(trifluoromethyl)phenoxy]-3-methylphenyl}-2H,4H,5H,6H,7H-pyrazolo[3,4-b]pyridin-6-one] stands 10 to 100 nM. For `COC(=O)C1C(=O)Nc2n[nH]cc2C1c1ccc(Oc2cc(C(F)(F)F)cc(C(F)(F)F)c2)c(OC)c1` (stereo not drawn) [Example 72, methyl 4-{4-[3,5-bis(trifluoromethyl)phenoxy]-3-methoxyphenyl}-6-oxo-2H,4H,5H,6H,7H-pyrazolo[3,4-b]pyridine-5-carboxylate] the value was 100 to 1000 nM. For `COc1cc(C2CC(=O)Nc3n[nH]cc32)ccc1Oc1cccc2c1OC(C)(C)C2` (stereo not drawn) [Example 48, 4-{4-[(2,2-dimethyl-2,3-dihydro-1-benzofuran-7-yl)oxy]-3-methoxyphenyl}-2H,4H,5H,6H,7H-pyrazolo[3,4-b]pyridin-6-one] the value was 10 to 100 nM.

As to `COc1cc(C2CC(=O)Nc3n[nH]cc32)ccc1Oc1ccccc1C1CC1` (stereo not drawn) [Example 28, 4-[4-(2-cyclopropylphenoxy)-3-methoxyphenyl]-2H,4H,5H,6H,7H-pyrazolo[3,4-b]pyridin-6-one], the IC50 was 10 to 100 nM. Under `O=C1CC(c2ccc(Oc3ccccc3S(F)(F)(F)(F)F)cc2)c2c[nH]nc2N1` (stereo not drawn) [Example 59, 4-{4-[2-(pentafluoro-λ^6-sulfanyl)phenoxy]phenyl}-2H,4H,5H,6H,7H-pyrazolo[3,4-b]pyridin-6-one] stands 100 to 1000 nM.

For the origin of these results see patent publication US20240150342A1, “ESTROGEN-RELATED RECEPTOR ALPHA MODULATORS” (LEAD PHARMA HOLDING B.V., priority 2019, published 2024).
